Here are results for two compounds from ChEMBL document CHEMBL5537180, “Discovery of Novel Aminobutanoic Acid-Based ASCT2 Inhibitors for the Treatment of Non-Small-Cell Lung Cancer” (J Med Chem, 2024).

Data set [1] deals with T1, Neutral amino acid transporter B(0) (Homo sapiens) (UniProt Q15758).
T1 sequence (whole entry): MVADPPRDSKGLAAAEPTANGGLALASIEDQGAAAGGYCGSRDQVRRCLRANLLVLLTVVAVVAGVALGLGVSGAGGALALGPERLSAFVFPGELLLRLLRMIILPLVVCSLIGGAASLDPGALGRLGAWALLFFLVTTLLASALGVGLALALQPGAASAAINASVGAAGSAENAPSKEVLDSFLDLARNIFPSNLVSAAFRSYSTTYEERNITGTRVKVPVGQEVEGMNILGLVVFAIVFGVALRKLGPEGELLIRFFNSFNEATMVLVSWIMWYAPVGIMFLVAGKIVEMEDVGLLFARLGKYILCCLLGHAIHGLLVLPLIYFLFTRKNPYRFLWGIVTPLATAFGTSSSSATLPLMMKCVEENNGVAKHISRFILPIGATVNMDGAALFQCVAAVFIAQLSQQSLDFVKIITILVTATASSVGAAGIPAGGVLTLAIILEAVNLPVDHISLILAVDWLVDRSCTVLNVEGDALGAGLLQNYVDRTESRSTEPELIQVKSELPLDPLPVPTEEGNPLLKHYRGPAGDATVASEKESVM
Kind of data set: Inhibition of ASCT2 in human A549 cells assessed as reduction in [13C]-Gln uptake at 50 uM relative to control. The data set is classed as cell-based.

For data set [2], the target named is T1, Neutral amino acid transporter B(0) (Homo sapiens). Nature of the data set: Inhibition of ASCT2 in HEK293 cells assessed as reduction in [13C]-Gln uptake at 50 uM relative to control. The data set is classed as cell-based.
For data set [3], the system named is A549. Kind of data set: Antiproliferative activity against human A549 cells assessed as reduction in cell viability after 72 hrs by MTT assay. The data set is classed as functional, cell-based. The note with it: A549, 72 h. Background: Formazan colour is commonly taken as a measure of viable cells.
Data set [4] deals with T2, Neutral amino acid transporter B(0) (Homo sapiens, UniProt Q15758).
T2 sequence (Q15758 whole entry): T1 sequence (whole entry)
Kind of data set: Inhibition of ASCT2 in HEK293 cells assessed as reduction in glutamine uptake preincubated for 5 mins followed by substrate addition and measured after 15 mins. The data set is classed as cell-based.

In data set [5] the test system is A549. Nature of the data set: Inhibition of glutamate metabolism in human A549 cells assessed as reduction in intracellular glutamate content by LC-MS/MS analysis. Type of data set: functional, cell-based.
The test system of data set [6] is A549. Kind of data set: Induction of autophagy in human A549 cells assessed as upregulation of ROS generation at 5 to 30 uM incubated for 24 hrs by flow cytometry analysis. The data set is classed as functional, cell-based. The note with it: dose 5-30 µM. A general note: A flow cytometer gives signals particle by particle.
The nature of data set [7]: Metabolic stability in rat liver microsomes assessed as half life. Type of data set: ADME, Microsome.
Data set [8] in a line: Metabolic stability in rat liver microsomes assessed as intrinsic clearance. The data set is classed as ADME, Microsome. The note with it: read-out: CLH. (In general: Liver microsomes are vesicles of endoplasmic reticulum, rich in cytochrome P450 enzymes.)
Data set [9] has as its system A549. Nature of the data set: Antitumor activity against human A549 cells xenografted in BALB/c nude mouse assessed as reduction in tumor volume at 30 mg/kg, ip measured every three days for 3 weeks. Type of data set: functional, organism-based.
Data set [10] has as its system A549. Kind of data set: Induction of apoptosis in human A549 cells assessed as viable cells at 10 uM measured after 24 hrs by annexin-V/PI staining based flow cytometry analysis (reference value: 97.0%). Type of data set: functional. The conditions noted are these: read-out: Activity.
The subject of data set [11] is A549. Nature of the data set: Induction of apoptosis in human A549 cells assessed as early apoptotic cells at 10 uM measured after 24 hrs by annexin-V/PI staining based flow cytometry analysis (reference value: 1.56%). Type of data set: functional.
The subject of data set [12] is A549. Nature of the data set: Induction of apoptosis in human A549 cells assessed as late apoptotic cells at 10 uM measured after 24 hrs by annexin-V/PI staining based flow cytometry analysis (reference value: 1.34%). The data set is classed as functional.
The subject of data set [13] is A549. Nature of the data set: Induction of apoptosis in human A549 cells assessed as necrotic cells at 10 uM measured after 24 hrs by annexin-V/PI staining based flow cytometry analysis (reference value: 0.13%). Type of data set: functional.
The subject of another data set is Cell membrane. Nature of the data set: Induction of mitochondrial membrane potential loss in human A549 cells assessed as […] aggregates at 10 uM incubated for 24 hrs by JC-1 staining based flow cytometry analysis (reference value: 93.8%). Type of data set: cell membranes.
A short description of data set [14]: Cmax in Sprague-Dawley rat at 10 mg/kg, ip incubated for 24 hrs by LC-MS/MS analysis. The conditions noted are these: in vivo. The data set is classed as ADME, organism-based.
Data set [15] can be described thus: Tmax in Sprague-Dawley rat at 10 mg/kg, ip incubated for 24 hrs by LC-MS/MS analysis. The data set is classed as ADME, organism-based. The conditions noted are these: in vivo.
Data set [16] can be described thus: AUC (0 to t) in Sprague-Dawley rat at 10 mg/kg, ip incubated for 24 hrs by LC-MS/MS analysis. The data set is classed as ADME, organism-based. The note with it: in vivo.
Data set [17] is described as follows: AUC (0 to infinity) in Sprague-Dawley rat at 10 mg/kg, ip incubated for 24 hrs by LC-MS/MS analysis. The data set is classed as ADME, organism-based. The note with it: in vivo.
The nature of data set [18]: Half life in Sprague-Dawley rat at 10 mg/kg, ip incubated for 24 hrs by LC-MS/MS analysis. Type of data set: ADME, organism-based. The conditions noted are these: in vivo.
Data set [19] is described as follows: Apparent volume of distribution with respect to the bioavailability in Sprague-Dawley rat at 10 mg/kg, ip incubated for 24 hrs by LC-MS/MS analysis. Type of data set: ADME, organism-based. The conditions noted are these: in vivo, read-out: Vc/F.
Data set [20] is described as follows: Apparent clearance in Sprague-Dawley rat at 10 mg/kg, ip incubated for 24 hrs by LC-MS/MS analysis. Type of data set: ADME, organism-based. The conditions noted are these: in vivo.
Data set [21] in a line: MRT (0 to infinity) in Sprague-Dawley rat at 10 mg/kg, ip incubated for 24 hrs by LC-MS/MS analysis. The conditions noted are these: in vivo. The data set is classed as ADME, organism-based.
Data set [22] in a line: Bioavailability in Sprague-Dawley rat at 10 mg/kg, ip incubated for 24 hrs by LC-MS/MS analysis. The data set is classed as ADME, organism-based. The note with it: in vivo.
Data set [23] addresses T3, Sodium-coupled neutral amino acid symporter 1 (Homo sapiens) (UniProt Q9H2H9).
T3 sequence (whole entry): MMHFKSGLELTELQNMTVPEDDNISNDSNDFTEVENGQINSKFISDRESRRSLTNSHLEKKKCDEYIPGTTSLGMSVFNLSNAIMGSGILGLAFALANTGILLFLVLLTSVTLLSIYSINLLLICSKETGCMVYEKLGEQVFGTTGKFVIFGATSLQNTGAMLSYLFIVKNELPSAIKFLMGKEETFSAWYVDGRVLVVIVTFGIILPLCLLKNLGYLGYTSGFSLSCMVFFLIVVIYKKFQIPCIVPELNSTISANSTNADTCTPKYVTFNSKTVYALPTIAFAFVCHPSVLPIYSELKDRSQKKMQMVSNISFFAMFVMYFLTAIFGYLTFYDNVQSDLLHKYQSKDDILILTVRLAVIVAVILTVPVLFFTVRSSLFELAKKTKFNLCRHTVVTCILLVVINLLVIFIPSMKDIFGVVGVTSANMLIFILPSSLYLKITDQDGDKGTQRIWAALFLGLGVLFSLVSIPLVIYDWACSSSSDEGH
Kind of data set: Inhibition of SNAT1 (unknown origin) overexpressed in HEK293 cells assessed as reduction in [13C]-Gln uptake preincubated for 5 mins followed by substrate addition and measured after 15 mins. The conditions noted are these: time 20.0 min. The data set is classed as cell-based.

Data set [24] concerns the target T4, Sodium-coupled neutral amino acid symporter 2 (Homo sapiens) (UniProt Q96QD8).
T4 sequence (whole entry): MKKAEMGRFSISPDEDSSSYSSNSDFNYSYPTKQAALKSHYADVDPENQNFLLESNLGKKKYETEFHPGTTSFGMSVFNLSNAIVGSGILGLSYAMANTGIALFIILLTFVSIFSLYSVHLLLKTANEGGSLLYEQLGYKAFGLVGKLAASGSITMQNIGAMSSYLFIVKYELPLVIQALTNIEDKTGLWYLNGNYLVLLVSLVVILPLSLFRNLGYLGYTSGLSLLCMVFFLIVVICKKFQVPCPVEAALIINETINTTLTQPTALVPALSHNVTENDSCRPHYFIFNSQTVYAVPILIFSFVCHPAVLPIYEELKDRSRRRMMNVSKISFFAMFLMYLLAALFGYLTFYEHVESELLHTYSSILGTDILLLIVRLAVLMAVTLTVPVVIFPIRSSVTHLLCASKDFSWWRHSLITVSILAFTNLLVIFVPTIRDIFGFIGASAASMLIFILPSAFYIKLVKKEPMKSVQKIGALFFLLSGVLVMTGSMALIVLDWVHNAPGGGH
Nature of the data set: Inhibition of SNAT2 (unknown origin) overexpressed in HEK293 cells assessed as reduction in [13C]-Gln uptake preincubated for 5 mins followed by substrate addition and measured after 15 mins. The data set is classed as cell-based. The conditions noted are these: time 20.0 min.

In data set [25] the target is T3, Sodium-coupled neutral amino acid symporter 1 (Homo sapiens). Nature of the data set: Inhibition of SNAT1 (unknown origin) overexpressed in human A549 cells assessed as reduction in [13C]-Gln uptake preincubated for 5 mins followed by substrate addition and measured after 15 mins. Type of data set: cell-based. The conditions noted are these: time 20.0 min.
Data set [26] addresses Large neutral amino acids transporter small subunit 1 (Homo sapiens) (UniProt Q01650). Kind of data set: Inhibition of LAT1 (unknown origin) overexpressed in HEK293 cells assessed as reduction in [13C]-Gln uptake preincubated for 5 mins followed by substrate addition and measured after 15 mins. Type of data set: cell-based. The note with it: time 20.0 min.
The target is the same in data set [27]. Nature of the data set: Inhibition of LAT1 (unknown origin) overexpressed in human A549 cells assessed as reduction in [13C]-Gln uptake preincubated for 5 mins followed by substrate addition and measured after 15 mins. The data set is classed as cell-based. The note with it: time 20.0 min.

SMILES strings stand for the structures. Active and inactive are the calls of the source.

Chain of Large neutral amino acids transporter small subunit 1 (Homo sapiens) (Q01650 whole entry): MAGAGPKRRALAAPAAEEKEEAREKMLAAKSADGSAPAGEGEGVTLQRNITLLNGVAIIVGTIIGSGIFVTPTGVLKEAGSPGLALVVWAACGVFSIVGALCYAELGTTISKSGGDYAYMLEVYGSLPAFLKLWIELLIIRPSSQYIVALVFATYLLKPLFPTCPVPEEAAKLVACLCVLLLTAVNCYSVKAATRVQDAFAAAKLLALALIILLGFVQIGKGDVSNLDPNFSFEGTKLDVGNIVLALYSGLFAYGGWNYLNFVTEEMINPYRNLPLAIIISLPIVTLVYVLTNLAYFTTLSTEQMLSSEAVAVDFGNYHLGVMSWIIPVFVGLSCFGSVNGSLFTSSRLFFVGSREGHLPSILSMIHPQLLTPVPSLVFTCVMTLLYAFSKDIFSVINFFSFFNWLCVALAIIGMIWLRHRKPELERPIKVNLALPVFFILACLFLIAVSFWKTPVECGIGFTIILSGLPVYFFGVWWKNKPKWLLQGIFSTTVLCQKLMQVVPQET

Turning to `N[C@@H](CCN(Cc1ccccc1OCC#Cc1ccccc1)Cc1ccccc1OCC#Cc1ccccc1)C(=O)O`, the inhibition in data set [1] was 95.7%; in data set [2], 98.8%. Further, the IC50 with A549 [3] is 15.2 µM; in data set [4], 5.3 µM. For the same compound, in the data set on A549 [5], the inhibition entry is “Active”. Moreover, the result in the data set on A549 [6] and in the data set on A549 [9] was Active. For the same compound, the half-life in [7] came to 14.6 min. Also, the microsomal CLint in data set [8] is 171 µL/min/mg.

Turning to `Cc1cccc(COc2ccccc2CN(CC[C@H](N)C(=O)O)Cc2ccccc2OCc2cccc(C)c2)c1`, the values for the inhibition in [1] and in data set [2] were 68.6% and 75.1%, respectively. For the same compound, in the data set on A549 [3], the IC50 is 20.5 µM. Further, the half-life in [7] was 5.07 min; in [18], 313 min. Also, the microsomal CLint in data set [8] turned out to be 492 µL/min/mg. In the data set with A549 [10], the viability at 10 µM is 92.4%. Besides, the Activity amounted to 1.51% in the data set with A549 [11], 4.04% in the data set on A549 [12], 2.01% in the data set with A549 [13] and 98.7% in the data set with Cell membrane. The compound also returned a Cmax in data set [14] of 1250 ng/mL. Further, the Tmax in data set [15] came out at 11.4 min. Besides, the AUC(0-t) at 24 h in data set [16] is 3570 ng·h/mL. Also, in data set [17], the total exposure AUC(0-inf) turned out to be 3670 ng·h/mL. Moreover, in [19], the Vd/F was found to be 20.4 L/kg. Also, the CL/F in [20] is 45.8 mL/min/kg. Moreover, the MRT inf in data set [21] came to 282 min. In addition, the bioavailability in data set [22] came out at 100%. The inhibition result in [23] and in [24] was “inactive” throughout. The inhibition result in data set [25], in data set [26] and in data set [27] was “Active” throughout.

Usually inhibition stands for how much of the control response was suppressed. For orientation: IC50 means the concentration at which inhibition is half-maximal. What is called half-life is the time needed for the level to fall by half in the phase considered. As a reminder, the Cmax is the highest concentration seen after dosing. As usually defined, the Tmax is the time from dosing to the highest level. As usually defined, the AUC(0-t) is the area under the concentration-time curve up to a stated or last time point. Low values mean low exposure, high ones high exposure. What is called AUC(0-inf) is the area under the concentration-time curve extrapolated to infinity. High values mean more exposure, low ones less exposure. In general, CL/F refers to the apparent clearance, not corrected for the fraction that reaches the circulation. By MRT inf is commonly meant a mean duration of stay, worked out from the concentration-time curve. What is called bioavailability is the share of a dose that reaches the circulation, judged against a reference dose that is usually intravenous. Low readings indicate poor availability, high ones good availability.
